In one data set the test system is HEL cells. Kind of data set: Cytotoxicity in HEL cells: cell morphology. As to conditions: microscopically detectable alteration of cell morphology. The data set is classed as cell-based, human.
Data set [1] deals with herpesviruses and poxviruses. As to conditions: for Activity against herpesviruses and poxviruses: in vitro.
In a further data set the test system is HSV. Kind of data set: Antiviral activity against HSV, strains summarised in text. It counts as cell-based, herpes simplex virus. To be noted: for EC50: read-out: EC50 HSV, range over strains.
For a further data set, the system named is VZV TK+ strain YS. The data set is classed as cell-based, varicella-zoster virus. As to conditions: HEL fibroblasts.
For another data set, the system named is VZV. Kind of data set: Antiviral activity against VZV, strains summarised in text. The data set is classed as cell-based, varicella-zoster virus. To be noted: for EC50: Human alphaherpesvirus 3, read-out: EC50 VZV, range over strains.
The subject of another data set is HCMV. Kind of data set: Antiviral activity against HCMV, strains summarised in text. It counts as cell-based, human cytomegalovirus. To be noted: for EC50: Human betaherpesvirus 5, read-out: EC50 HCMV, range over strains.
A further data set concerns Feline herpesvirus. Kind of data set: Antiviral activity against feline herpesvirus in CRFK cells. The data set is classed as cell-based.
The test system of data set [2] is Vaccinia virus Lederle strain. Kind of data set: microbe, parasite or virus in culture. The data set is classed as cell-based.
The test system of the next data set is VZV TK- strain YS/R. It counts as cell-based, varicella-zoster virus. As to conditions: HEL fibroblasts.
The next data set has as its system VZV TK+ strain Oka. Kind of data set: microbe, parasite or virus in culture. It counts as cell-based, varicella-zoster virus. To be noted: Human alphaherpesvirus 3, Fibroblast, read-out: EC50 VZV TK+ strain Oka.
Data set [3] concerns herpesviruses and poxviruses. As to conditions: EC50 in the μM range; cited from earlier work.

Some results are limits rather than exact numbers.

`CCCCCCCCCCCCCCCCOCCCOP(=O)(CCOCCn1cnc2c(=O)[nH]cnc21)OCCCOCCCCCCCCCCCCCCCC` [Compound 3, Bis 3-(hexadecyloxypropyl) ester of 9-[2-(phosphonomethoxy)ethyl]hypoxanthine]: the “Cytotoxicity in HEL cells, cell morphology, MCC (minimum cytotoxic concentration)” value in the data set with HEL cells was at least 117 μM. Further, the “Activity against herpesviruses and poxviruses” value in data set [1] was “inactive”.

In the case of `CCCCCCCCCCCCCCCCOCCCOP1(=O)CO[C@@H](Cn2cnc3c(=O)[nH]c(N)nc32)CO1` (stereo partly drawn) [Compound 18, 3-(Hexadecyloxypropyl) ester of 9-{[(5S)-2-hydroxy-2-oxido-1,4,2-dioxaphosphinan-5-yl]methyl}guanine], the “Selectivity index HSV, range over strains” value in the data set on HSV (ratio CC50 to EC50) was 211–559. In addition, the EC50 (as a rule, the concentration giving half of the maximal effect) with HSV is 7 to 90 nM; with VZV, 1 to 2.5 nM; in the data set on HCMV, 2 to 7 nM. Besides, the “Cytotoxicity in HEL cells, cell morphology, MCC (minimum cytotoxic concentration)” value with HEL cells was at least 171.3 μM. Moreover, the “Selectivity index (ratio CC50 to EC50) VZV YS” value in the data set on VZV TK+ strain YS is on record as 19,000. Moreover, the “Selectivity index VZV, range over strains” value in the data set on VZV (ratio CC50 to EC50) was 2700–19,000. The “Selectivity index HCMV, range over strains” value in the data set on HCMV (ratio CC50 to EC50) was 3800–9500.

As to `Nc1nc(O)c2ncn(COC(CO)CO)c2n1` [Ganciclovir, reference compound], in the data set on HEL cells, the “Cytotoxicity in HEL cells, cell morphology, MCC (minimum cytotoxic concentration)” value is over 394 μM.

As for `Nc1nc2c(ncn2COCCO)c(=O)[nH]1` [Acyclovir, reference compound], the “Cytotoxicity in HEL cells, cell morphology, MCC (minimum cytotoxic concentration)” value in the data set with HEL cells was over 444 μM.

As for `Nc1nc2c(ncn2C[C@H]2COP(=O)(O)CO2)c(=O)[nH]1` [(S)-cHPMPG, reference compound], in the data set on HEL cells, the “Cytotoxicity in HEL cells, cell morphology, MCC (minimum cytotoxic concentration)” value is reported as over 100 μM.

As for `CCCCCCCCCCCCCCCCOCCCOP(=O)(CO[C@H](CO)Cn1cnc2c(=O)[nH]c(N)nc21)OCCCOCCCCCCCCCCCCCCCC` [Compound 14, Bis 3-(hexadecyloxypropyl) ester of 9-(S)-[3-hydroxy-2-(phosphonomethoxy)propyl]guanine], the “Fold difference of EC50 versus parent compound (S)-HPMPG, HSV” value with HSV (printed as lower than parent) is on record as 15- to 40 fold. Further, the “Fold difference of EC50 versus parent compound (S)-HPMPG, feline herpesvirus” value with Feline herpesvirus (printed as lower than parent) turned out to be 157 fold. Also, in the data set with HEL cells, the “Cytotoxicity in HEL cells, cell morphology, MCC (minimum cytotoxic concentration)” value was at least 22.6 μM. For the same compound, the “Fold difference of EC50 versus parent compound (S)-HPMPG, VACV” value in data set [2] is given as 41 fold. Further, the “Fold difference of EC50 versus parent compound (S)-HPMPG, VZV” value in the data set with VZV (printed as lower than parent) was 7 fold. The “Selectivity index (ratio CC50 to EC50) VZV YS/R” value in the data set on VZV TK- strain YS/R is reported as over 57. Also, the “Fold difference of EC50 versus parent compound (S)-HPMPG, HCMV” value with HCMV (printed as lower than parent) was 7 fold.

With `CCCCCCCCCCCCCCCCOCCCOP(=O)(CO[C@H](CO)Cn1cnc2c(=O)[nH]cnc21)OCCCOCCCCCCCCCCCCCCCC` [Compound 13, Bis 3-(hexadecyloxypropyl) ester of 9-(S)-[3-hydroxy-2-(phosphonomethoxy)propyl]hypoxanthine], the “Cytotoxicity in HEL cells, cell morphology, MCC (minimum cytotoxic concentration)” value with HEL cells is given as at least 23 μM. Besides, the “Activity against herpesviruses and poxviruses” value in data set [1] was “totally inactive”.

Regarding `O=c1[nH]c(=O)n([C@H]2C[C@H](O)[C@@H](CO)O2)cc1/C=C/Br` [Brivudin, reference compound], the EC50 amounted to 10 ± 10 nM in the data set on VZV TK+ strain Oka and 15 ± 17 µM in data set [2] (Orthopoxvirus vaccinia, Fibroblast, read-out: EC50 Vaccinia virus Lederle). In the data set with HEL cells, the “Cytotoxicity in HEL cells, cell morphology, MCC (minimum cytotoxic concentration)” value is on record as over 300 μM.

`Nc1ccn(C[C@@H](CO)OCP(=O)(O)O)c(=O)n1.O.O` [Cidofovir, reference compound]: the “Cytotoxicity in HEL cells, cell morphology, MCC (minimum cytotoxic concentration)” value in the data set with HEL cells is over 317 μM.

As to `CCCCCCCCCCCCCCCCOCCCOP(=O)(O)CO[C@H](CO)Cn1cnc2c(=O)[nH]c(N)nc21` [Compound 16, 3-(Hexadecyloxypropyl) ester of 9-(S)-[3-hydroxy-2-(phosphonomethoxy)propyl]guanine], the values for the EC50 with HSV, in the data set on VZV and in the data set with HCMV were 7 to 90 nM, 1 to 2.5 nM and 2 to 7 nM, respectively. In addition, the “Activity against feline herpesvirus” value in the data set with Feline herpesvirus (CRFK cells) is “inactive”. Further, the “Cytotoxicity in HEL cells, cell morphology, MCC (minimum cytotoxic concentration)” value in the data set with HEL cells is at least 1.3 μM. In addition, in data set [1] (across viruses), the “SIs fold lower compared to compound 18” value is listed as 2- to 66 fold.

With `CCCCCCCCCCCCCCCCOCCCOP1(=O)CO[C@@H](Cn2cnc3c(=O)[nH]cnc32)CO1` (stereo partly drawn) [Compound 17, 3-(Hexadecyloxypropyl) ester of 9-{[(5S)-2-hydroxy-2-oxido-1,4,2-dioxaphosphinan-5-yl]methyl}hypoxanthine], the “Cytotoxicity in HEL cells, cell morphology, MCC (minimum cytotoxic concentration)” value in the data set with HEL cells is at least 7 μM. Also, the “Activity against herpesviruses and poxviruses” value in data set [1] is “totally inactive”.

In the case of `CCCCCCCCCCCCCCCCOCCCOP(=O)(O)CO[C@H](CO)Cn1cnc2c(=O)[nH]cnc21` [Compound 15, 3-(Hexadecyloxypropyl) ester of 9-(S)-[3-hydroxy-2-(phosphonomethoxy)propyl]hypoxanthine], in the data set on HEL cells, the “Cytotoxicity in HEL cells, cell morphology, MCC (minimum cytotoxic concentration)” value is given as at least 34 μM. Besides, the “Activity against herpesviruses and poxviruses” value in data set [1] is “totally inactive”.

For `Nc1nc2c(ncn2C[C@@H](CO)OCP(=O)(O)O)c(=O)[nH]1` [(S)-HPMPG, 9-(S)-[3-hydroxy-2-(phosphonomethoxy)propyl]guanine, reference compound], in data set [3], the “Reported activity against HSV-1, HSV-2, VZV, CMV and vaccinia virus” value is “active”. In the data set on HEL cells, the “Cytotoxicity in HEL cells, cell morphology, MCC (minimum cytotoxic concentration)” value is listed as over 100 μM.

These data come from publication PMC7115494 (European Journal of Medicinal Chemistry, 2012).
